Source: patent US12091650B2, “Development of spinal cord on a microfluidic chip” (EMULATE, INC., priority 2016, dated 2024)
Entries after “also recorded” stand apart in the source; their conditions may differ.

Key:
[1] = test system: blood brain barrier (BBB) on-chip; assay type: in vitro ADME, human; conditions: FIG. 46A, % Dextran (fluorescence)
Procedure: (§1) In some embodiments, methods for seeding cells on-chip are provided, as follows for one example: Day—1: Activate and Coat Chips, Day 0: Seed HBMECs, Astrocytes and Pericytes.; Day 1: Initiate flow of media @60 μl/hr. Bottom channel only or Top and bottom channels.; Day 2: Initiate permeability assay: Dextran+ Serum proteins+ Compounds of interest.; Day 3: End permeability assay. Collect media and freeze.; Day 4: Test permeability modulators/experimental stimuli Day 5: Repeat permeability assay.; Day 6: End permeability assay—Collect media and freeze. Fix or lyse chips.

neurons seeded in chip = assay type: cell-based, human
[2] = test system: SC-Chip neurons (lines 83GFP and 00iCTR); assay type: cell-based, human
[3] = test system: blood brain barrier (BBB) on-chip, iPS-derived brain endothelial cells; experiment: Barrier function test with human serum proteins (ELISA); assay type: in vitro ADME; conditions: FIG. 47, ELISA
Procedure: as §1

iBMEC barrier function = experiment: TEER measurement on prototype TEER chips under flow; assay type: cell-based, human; conditions: FIG. 14A, chips under flow then exposed to TNFa
Procedure: Cells were plated on tall channel PDMS chips equipped with incorporated gold electrodes on each channel (see FIG. 13A). Post seeding of BMECs, transendothelial electrical resistance was measured by connecting the electrodes to an EVOM2 voltohmmeter (see FIG. 13B). […] The “damaged” chip was a failure due to the TEER-Chips being a prototype.
Higher TEER values generally indicate a tighter barrier, which is typically desirable for a blood-brain barrier.

[4] = test system: BMECs seeded on a microfluidic device; experiment: Paracellular permeability assay with Dextran-FITC on chip; assay type: cell-based, human; conditions: FIG. 14B, TNFa exposure
Procedure: Albumin or Dextran conjugated to a fluorescent probe (e.g., FITC or TRITC) are frequently used to monitor changes in leakage, and thus barrier function. In this case, Dextran-FITC, a green fluorescent molecule of 4 KDa, or sodium fluorescein (a 0.3 KDa molecule), was added to the bottom (“blood side”) channel. Paracellular permeability was calculated by measuring the permeability of the fluorescent molecule on the Top (“brain side”) channel. […] FIG. 14B involves TNF-alpha exposure, but the readout is membrane permeability as measured by Dextran-FITC.

Compound: Dextran
- diffusion from Vascular Channel to Neuronal Channel [1]: low diffusion

Compound: NC1=N[C@H](O)[C@H]2[C@H]3O[C@]4(O)O[C@@H]([C@@H](O)[C@@]2(N1)[C@@H]4O)[C@]3(O)CO [tetrodotoxin]
- effect on calcium flux (neuronal) activity (neurons seeded in chip): ablates this activity
- neuron activity (calcium transients) [2]: completely ablated

Compound: transferrin: human transferrin measured by ELISA
- diffusion / level in neuronal channel, from Vascular Channel to Neuronal Channel [3]: High levels

Compound: TNFa
- iBMEC barrier function (TEER) after exposure (iBMEC barrier function): weakening of barrier function; also recorded: decrease in barrier function and TEER
- permeability through the semi-porous membrane by dextran-FITC after exposure [4]: increase in permeability
